The text below walks through data of PMC5218480 (PLoS ONE, 2017).

This test has as its system MV-4-11 cells. As to the kind of experiment: Gene expression microarray analysis (Affymetrix PrimeView) and GSEA. Details: RFU PODN (11730768_x_at) / Fold change /veh PODN (11730768_x_at) / RFU LINC00158 (11744669_a_at) / Fold change /veh LINC00158 (11744669_a_at) / RFU DUSP10 (11751237_a_at) / Fold change /veh DUSP10 (11751237_a_at) / RFU ID3 (11757404_x_at) / Fold change /veh ID3 (11757404_x_at) / RFU PLEKHG5 (11737974_s_at) / Fold change /veh PLEKHG5 (11737974_s_at) / RFU LRRC4B (11730491_at) / Fold change /veh LRRC4B (11730491_at) / RFU GIMAP4 (11747438_a_at) / Fold change /veh GIMAP4 (11747438_a_at) / RFU KRT8 (11758183_x_at) / Fold change /veh KRT8 (11758183_x_at) / RFU CNN1 (11734310_a_at) / Fold change /veh CNN1 (11734310_a_at) / RFU VPS37D (11726825_at) / Fold change /veh VPS37D (11726825_at) / RFU C10orf10 (11716522_x_at) / Fold change /veh C10orf10 (11716522_x_at) / RFU KIR2DL2 /// KIR2DL4 /// KIR2DL5A /// KIR2DL5B /// KIR2DS1 /// KIR2DS2 /// KIR2DS3 /// KIR2DS4 /// KIR3DL3 /// KIR3DL3 /// KIR3DS1 (11738374_at) / Fold change /veh KIR2DL2 /// KIR2DL4 /// KIR2DL5A /// KIR2DL5B /// KIR2DS1 /// KIR2DS2 /// KIR2DS3 /// KIR2DS4 /// KIR3DL3 /// KIR3DL3 /// KIR3DS1 (11738374_at) / RFU C1QL1 (11718748_at) / Fold change /veh C1QL1 (11718748_at) / RFU TMPRSS4 (11747572_a_at) / Fold change /veh TMPRSS4 (11747572_a_at) / RFU HAMP (11756126_x_at) / Fold change /veh HAMP (11756126_x_at) / RFU RNFT2 (11725882_a_at) / Fold change /veh RNFT2 (11725882_a_at) / RFU NR4A2 (11747474_a_at) / Fold change /veh NR4A2 (11747474_a_at) / RFU ABCC12 (11746883_a_at) / Fold change /veh ABCC12 (11746883_a_at) / RFU TMEM136 (11760407_x_at) / Fold change /veh TMEM136 (11760407_x_at) / RFU CLDN22 /// WWC2 (11732394_at) / Fold change /veh CLDN22 /// WWC2 (11732394_at) / RFU HLA-DPB1 (11760878_x_at) / Fold change /veh HLA-DPB1 (11760878_x_at) / RFU SPINT1 (11716480_a_at) / Fold change /veh SPINT1 (11716480_a_at) / RFU GAP43 (11754022_s_at) / Fold change /veh GAP43 (11754022_s_at) / RFU A4GNT (11735810_at) / Fold change /veh A4GNT (11735810_at) / RFU PRB3 (11715151_x_at) / Fold change /veh PRB3 (11715151_x_at) / RFU TUBB4B (11761932_at) / Fold change /veh TUBB4B (11761932_at) / RFU CAPN14 (11732068_a_at) / Fold change /veh CAPN14 (11732068_a_at) / RFU TMCC2 (11721928_a_at) / Fold change /veh TMCC2 (11721928_a_at) / RFU IRGQ (11745062_a_at) / Fold change /veh IRGQ (11745062_a_at) / RFU FAM174B (11720279_a_at) / Fold change /veh FAM174B (11720279_a_at) / RFU TMPRSS4 (11748680_a_at) / Fold change /veh TMPRSS4 (11748680_a_at) / RFU FAM212B (11763350_a_at) / Fold change /veh FAM212B (11763350_a_at) / RFU PLEKHG5 (11743358_a_at) / Fold change /veh PLEKHG5 (11743358_a_at) / RFU ZSCAN30 (11745921_a_at) / Fold change /veh ZSCAN30 (11745921_a_at) / RFU CMKLR1 (11741424_a_at) / Fold change /veh CMKLR1 (11741424_a_at) / RFU LOC101060620 /// MAPK8IP1 (11723275_at) / Fold change /veh LOC101060620 /// MAPK8IP1 (11723275_at) / RFU SPTSSB (11747773_x_at) / Fold change /veh SPTSSB (11747773_x_at) / RFU PRSS12 (11739890_at) / Fold change /veh PRSS12 (11739890_at) / RFU BIN1 (11741810_x_at) / Fold change /veh BIN1 (11741810_x_at) / RFU WNT11 (11732464_a_at) / Fold change /veh WNT11 (11732464_a_at) / RFU C10orf10 (11716521_a_at) / Fold change /veh C10orf10 (11716521_a_at) / RFU C5orf56 (11738089_at) / Fold change /veh C5orf56 (11738089_at) / RFU CYB561 (11721691_x_at) / Fold change /veh CYB561 (11721691_x_at) / RFU ANKRD19P (11752326_a_at) / Fold change /veh ANKRD19P (11752326_a_at) / RFU OR2T12 /// OR2T33 /// OR2T8 (11738714_s_at) / Fold change /veh OR2T12 /// OR2T33 /// OR2T8 (11738714_s_at) / RFU VCAN (11748164_a_at) / Fold change /veh VCAN (11748164_a_at) / RFU JSRP1 (11732532_at) / Fold change /veh JSRP1 (11732532_at) / RFU KRTAP10-11 (11738290_x_at) / Fold change /veh KRTAP10-11 (11738290_x_at) / RFU MYO3A (11730013_a_at) / Fold change /veh MYO3A (11730013_a_at) / RFU EBF3 (11725865_a_at) / Fold change /veh EBF3 (11725865_a_at) / RFU CAMK2N1 (11719241_x_at) / Fold change /veh CAMK2N1 (11719241_x_at) / RFU C5orf56 (11738088_a_at) / Fold change /veh C5orf56 (11738088_a_at) / RFU OLFML3 (11715873_a_at) / Fold change /veh OLFML3 (11715873_a_at) / RFU LOC100653217 /// NTM (11731650_a_at) / Fold change /veh LOC100653217 /// NTM (11731650_a_at) / RFU MAPK11 (11762145_a_at) / Fold change /veh MAPK11 (11762145_a_at) / RFU FIZ1 (11724087_x_at) / Fold change /veh FIZ1 (11724087_x_at) / RFU OASL (11726364_x_at) / Fold change /veh OASL (11726364_x_at) / RFU SOX15 (11748057_x_at) / Fold change /veh SOX15 (11748057_x_at) / RFU CD79A (11719716_a_at) / Fold change /veh CD79A (11719716_a_at) / RFU HIST1H1D (11736915_at) / Fold change /veh HIST1H1D (11736915_at) / RFU CASKIN2 (11723855_a_at) / Fold change /veh CASKIN2 (11723855_a_at) / RFU LOC730098 (11760151_x_at) / Fold change /veh LOC730098 (11760151_x_at) / RFU OR4N2 (11742367_at) / Fold change /veh OR4N2 (11742367_at) / RFU PRRT2 (11749266_a_at) / Fold change /veh PRRT2 (11749266_a_at) / RFU SNX32 (11753110_a_at) / Fold change /veh SNX32 (11753110_a_at) / RFU CDHR5 (11726645_a_at) / Fold change /veh CDHR5 (11726645_a_at) / RFU RCAN1 (11760418_a_at) / Fold change /veh RCAN1 (11760418_a_at) / RFU FAM167A (11723789_a_at) / Fold change /veh FAM167A (11723789_a_at) / RFU FAM26E (11764081_at) / Fold change /veh FAM26E (11764081_at) / RFU ISYNA1 (11749810_s_at) / Fold change /veh ISYNA1 (11749810_s_at) / RFU ACY1 (11761880_at) / Fold change /veh ACY1 (11761880_at) / RFU 11764098_at / Fold change /veh 11764098_at / RFU SAMD14 (11745864_x_at) / Fold change /veh SAMD14 (11745864_x_at) / RFU NPB (11741838_a_at) / Fold change /veh NPB (11741838_a_at) / RFU TMPRSS6 (11731388_a_at) / Fold change /veh TMPRSS6 (11731388_a_at) / RFU KRTAP10-2 (11738614_at) / Fold change /veh KRTAP10-2 (11738614_at) / RFU ARHGAP8 /// PRR5-ARHGAP8 (11727945_x_at) / Fold change /veh ARHGAP8 /// PRR5-ARHGAP8 (11727945_x_at) / RFU KRTAP5-7 /// NADSYN1 (11734609_at) / Fold change /veh KRTAP5-7 /// NADSYN1 (11734609_at) / RFU RASL12 (11751679_a_at) / Fold change /veh RASL12 (11751679_a_at) / RFU CDKN2B (11736163_a_at) / Fold change /veh CDKN2B (11736163_a_at) / RFU PRF1 (11729649_at) / Fold change /veh PRF1 (11729649_at) / RFU, ZNF638 /// ZNF638-IT1 / Fold change vs veh, ZNF638 /// ZNF638-IT1 / RFU, PANK3 / Fold change vs veh, PANK3 / RFU, SH3YL1 / Fold change vs veh, SH3YL1 / RFU, ZEB2 / Fold change vs veh, ZEB2 / RFU, NRIP1 / Fold change vs veh, NRIP1 / RFU, PTTG1IP / Fold change vs veh, PTTG1IP / RFU, CAPN2 / Fold change vs veh, CAPN2 / RFU, MED14 / Fold change vs veh, MED14 / RFU, SNORA58 / Fold change vs veh, SNORA58 / RFU, C1orf63 / Fold change vs veh, C1orf63 / RFU, LRRFIP1 / Fold change vs veh, LRRFIP1 / RFU, NDUFAF7 / Fold change vs veh, NDUFAF7 / RFU, SLC12A2 / Fold change vs veh, SLC12A2 / RFU, IBTK / Fold change vs veh, IBTK / RFU, ESF1 / Fold change vs veh, ESF1 / Fold change vs veh, TMEM50B / RFU, TAOK1 / Fold change vs veh, TAOK1 / RFU, ACBD3 / Fold change vs veh, ACBD3 / RFU, TMA16 / Fold change vs veh, TMA16 / RFU, RWDD3 / Fold change vs veh, RWDD3 / RFU, BCAT1 / Fold change vs veh, BCAT1 / RFU, EDEM3 / Fold change vs veh, EDEM3 / RFU, TMEM33 / Fold change vs veh, TMEM33 / RFU, WDR75 / Fold change vs veh, WDR75 / RFU, AHCTF1 / Fold change vs veh, AHCTF1 / RFU, TFRC / Fold change vs veh, TFRC / RFU, ZDHHC17 / Fold change vs veh, ZDHHC17 / RFU, NOM1 / Fold change vs veh, NOM1 / RFU, ARL8B / Fold change vs veh, ARL8B / RFU, ZBTB11 / Fold change vs veh, ZBTB11 / RFU, TAMM41 / Fold change vs veh, TAMM41 / RFU, KIAA1704 /// LOC100996395 / Fold change vs veh, KIAA1704 /// LOC100996395 / RFU, ING1 / Fold change vs veh, ING1 / RFU, TRMT61B / Fold change vs veh, TRMT61B / RFU, FUBP3 / Fold change vs veh, FUBP3 / RFU, TP53 / Fold change vs veh, TP53 / RFU, TNKS2 / Fold change vs veh, TNKS2 / RFU, ZFP14 / Fold change vs veh, ZFP14 / RFU, ACTR2 / Fold change vs veh, ACTR2 / RFU, PPP3R1 / Fold change vs veh, PPP3R1 / RFU, PIK3R1 / Fold change vs veh, PIK3R1 / RFU, HNRNPA1 / Fold change vs veh, HNRNPA1 / RFU, RNF170 / Fold change vs veh, RNF170 / RFU, ZNF28 / Fold change vs veh, ZNF28 / RFU, RNGTT / Fold change vs veh, RNGTT / RFU, OGT / Fold change vs veh, OGT / RFU, BRD1 / Fold change vs veh, BRD1 / RFU, MARS / Fold change vs veh, MARS / RFU, ZNF655 / Fold change vs veh, ZNF655 / RFU, FAHD1 / Fold change vs veh, FAHD1 / RFU, BDP1 / Fold change vs veh, BDP1 / RFU, LRRCC1 / Fold change vs veh, LRRCC1 / RFU, ARID1A / Fold change vs veh, ARID1A / RFU, ZNF146 / Fold change vs veh, ZNF146 / RFU, ZNF330 / Fold change vs veh, ZNF330 / RFU, GPN3 / Fold change vs veh, GPN3 / RFU, C9orf123 / Fold change vs veh, C9orf123 / RFU, N4BP2L2 / Fold change vs veh, N4BP2L2 / RFU, ARFIP1 / Fold change vs veh, ARFIP1 / RFU, FAM179B / Fold change vs veh, FAM179B / RFU, BCL10 / Fold change vs veh, BCL10 / RFU, UHRF1BP1L / Fold change vs veh, UHRF1BP1L / RFU, BET1 / Fold change vs veh, BET1 / RFU, CNOT2 / Fold change vs veh, CNOT2 / RFU, ZNF268 / Fold change vs veh, ZNF268 / Fold change vs veh, ZNF507 / RFU, DGCR2 / Fold change vs veh, DGCR2 / RFU, WDSUB1 / Fold change vs veh, WDSUB1 / Fold change vs veh, HSP90B1 /// MIR3652 / RFU, ADSS / Fold change vs veh, ADSS / RFU, GK / Fold change vs veh, GK / RFU, ZNF148 / Fold change vs veh, ZNF148 / RFU, TAF9 / Fold change vs veh, TAF9 / RFU, SLC1A5 / Fold change vs veh, SLC1A5 / RFU, SLMO2 / Fold change vs veh, SLMO2 / RFU, ABCC4 / Fold change vs veh, ABCC4 / RFU, LOC101060439 /// RAP1B / Fold change vs veh, LOC101060439 /// RAP1B / RFU, RFX7 / Fold change vs veh, RFX7 / RFU, GTPBP10 / Fold change vs veh, GTPBP10 / RFU, CNEP1R1 / Fold change vs veh, CNEP1R1 / RFU, BIVM-ERCC5 /// ERCC5 / Fold change vs veh, BIVM-ERCC5 /// ERCC5 / RFU, ILF3 / Fold change vs veh, ILF3 / RFU 11762660_at / Fold change /veh 11762660_at / RFU VCAN (11757783_s_at) / Fold change /veh VCAN (11757783_s_at) / RFU DDX43 (11728927_at) / Fold change /veh DDX43 (11728927_at) / RFU KRT8 (11758188_x_at) / Fold change /veh KRT8 (11758188_x_at) / RFU NKD1 (11759106_at) / Fold change /veh NKD1 (11759106_at) / RFU SRD5A1 (11742802_a_at) / Fold change /veh SRD5A1 (11742802_a_at) / RFU TPSAB1 /// TPSB2 (11721975_s_at) / Fold change /veh TPSAB1 /// TPSB2 (11721975_s_at) / RFU GSTM3 (11746129_a_at) / Fold change /veh GSTM3 (11746129_a_at) / RFU IL23R (11737362_x_at) / Fold change /veh IL23R (11737362_x_at) / RFU TMEM51 (11727254_a_at) / Fold change /veh TMEM51 (11727254_a_at) / RFU PIWIL2 (11732686_x_at) / Fold change /veh PIWIL2 (11732686_x_at) / RFU ORM1 (11744905_x_at) / Fold change /veh ORM1 (11744905_x_at) / RFU CCDC152 (11743942_at) / Fold change /veh CCDC152 (11743942_at) / RFU ECM1 (11717891_a_at) / Fold change /veh ECM1 (11717891_a_at) / RFU IL23R (11748794_a_at) / Fold change /veh IL23R (11748794_a_at) / RFU TNFAIP8L3 (11732012_x_at) / Fold change /veh TNFAIP8L3 (11732012_x_at) / RFU MBOAT4 (11741988_at) / Fold change /veh MBOAT4 (11741988_at) / RFU 11764193_at / Fold change /veh 11764193_at / RFU TMEM53 (11763286_at) / Fold change /veh TMEM53 (11763286_at) / RFU MAGEB2 (11727129_at) / Fold change /veh MAGEB2 (11727129_at) / RFU TMEM200A (11744735_a_at) / Fold change /veh TMEM200A (11744735_a_at) / RFU CCDC152 (11751479_a_at) / Fold change /veh CCDC152 (11751479_a_at) / RFU FAM211A (11726209_a_at) / Fold change /veh FAM211A (11726209_a_at) / RFU RGS16 (11746705_a_at) / Fold change /veh RGS16 (11746705_a_at) / RFU VCAN (11755009_s_at) / Fold change /veh VCAN (11755009_s_at) / RFU RHOB (11743442_s_at) / Fold change /veh RHOB (11743442_s_at) / RFU RGS16 (11720943_a_at) / Fold change /veh RGS16 (11720943_a_at) / RFU RGS16 (11720944_at) / Fold change /veh RGS16 (11720944_at) / RFU, VPS4B / Fold change vs veh, VPS4B / RFU, CREB1 / Fold change vs veh, CREB1 / RFU, DNAJC13 / Fold change vs veh, DNAJC13 / RFU, GNAQ / Fold change vs veh, GNAQ / RFU, CDK5R1 / Fold change vs veh, CDK5R1 / RFU, ZRANB3 / Fold change vs veh, ZRANB3 / RFU, CUL4A / Fold change vs veh, CUL4A / RFU, CCNY / Fold change vs veh, CCNY / RFU, UFL1 / Fold change vs veh, UFL1 / RFU, COG3 / Fold change vs veh, COG3 / RFU, DIAPH2 / Fold change vs veh, DIAPH2 / RFU, SKA2 / Fold change vs veh, SKA2 / RFU, AFF3 / Fold change vs veh, AFF3 / RFU, LMF1 / Fold change vs veh, LMF1 / RFU, IPO11 / Fold change vs veh, IPO11 / RFU, DFFB / Fold change vs veh, DFFB / RFU, FOXP1 / Fold change vs veh, FOXP1 / RFU, CARD8 / Fold change vs veh, CARD8 / RFU, STRN3 / Fold change vs veh, STRN3 / RFU, ADK / Fold change vs veh, ADK / RFU, RASSF2 / Fold change vs veh, RASSF2 / RFU, WIPF1 / Fold change vs veh, WIPF1 / RFU, LARP1B / Fold change vs veh, LARP1B / RFU, RASA1 / Fold change vs veh, RASA1 / RFU, RB1 / Fold change vs veh, RB1 / RFU, PPFIA1 / Fold change vs veh, PPFIA1 / RFU, MAT2A / Fold change vs veh, MAT2A / RFU, CCT5 / Fold change vs veh, CCT5 / RFU, WDR92 / Fold change vs veh, WDR92 / RFU, CUX1 / Fold change vs veh, CUX1 / RFU, TTC7A / Fold change vs veh, TTC7A / RFU, TMEM135 / Fold change vs veh, TMEM135 / RFU, DEPTOR / Fold change vs veh, DEPTOR / RFU, CPM / Fold change vs veh, CPM / RFU, DNAJB6 / Fold change vs veh, DNAJB6 / RFU, CACNA2D3 / Fold change vs veh, CACNA2D3 / RFU, DTX4 / Fold change vs veh, DTX4 / RFU, TFCP2 / Fold change vs veh, TFCP2 / RFU, GMCL1 /// GMCL1P1 / Fold change vs veh, GMCL1 /// GMCL1P1 / RFU, AEBP2 / Fold change vs veh, AEBP2 / RFU, SNHG1 /// SNORD22 /// SNORD25 /// SNORD26 /// SNORD27 /// SNORD28 /// SNORD29 /// SNORD31 / Fold change vs veh, SNHG1 /// SNORD22 /// SNORD25 /// SNORD26 /// SNORD27 /// SNORD28 /// SNORD29 /// SNORD31 / Fold change (Aza/veh), C12orf56 (ProbeSet 11735607_a_at) / Fold change (ACY-1035/veh), C12orf56 (ProbeSet 11735607_a_at) / Fold change (Aza/veh), FGFR1OP (ProbeSet 11751329_s_at) / Fold change (ACY-1035/veh), FGFR1OP (ProbeSet 11751329_s_at) / Fold change (Aza/veh), VPS36 (ProbeSet 11739960_a_at) / Fold change (ACY-1035/veh), VPS36 (ProbeSet 11739960_a_at) / RFU SYPL1 (11715823_x_at) / Fold change /veh SYPL1 (11715823_x_at) / RFU IGFBP7 (11715501_s_at) / Fold change /veh IGFBP7 (11715501_s_at) / RFU REEP3 (11722064_at) / Fold change /veh REEP3 (11722064_at) / RFU IGLL1 (11728026_x_at) / Fold change /veh IGLL1 (11728026_x_at): dose or concentration left out as unconfirmed. It counts as cell-based, human. As to conditions: MV-4-11 cells, 48 hours.

For the compound `Nc1ncn([C@@H]2O[C@H](CO)[C@@H](O)[C@H]2O)c(=O)n1` [azacitidine], the “RFU NKD1 (11759106_at)” value was 23.64 RFU.
